Reference: patent publication US8071367B2, “Selecting, culturing and creating lineage committed hematopoietic stem cells” (Commonwealth Scientific and Industrial Research Organisation, priority 2005, dated 2011)
Where no end group is shown, it is not given here.

System: CB CD34+CD38− HSC
Assay: In vitro proliferation of sorted cord blood CD34+CD38− HSC with 6 growth factor stimulation, cells counted after 6 days
Type: cell-based, human
Settings: 300 per well, Cellgro supplemented with 6 factors, after 6 d, versus 6 factors alone
Protocol: Human cord blood cells were sorted by FACS and plated into cell culture wells (300 cells/well) in the presence of Cellgro supplemented with 6 growth factors G-CSF, […], FL-T3 ligand, (FLT3-L), MGDF (all 100 ng/ml), IL-6 and IL-3 (both 10 ng/ml). In addition, α9β1 antibody (Chemicon), thrombin-cleaved bovine Opn (R & D Systems, Minneapolis, Minn., USA), or Opn inhibiting peptide [SVVYGLR-NH2] (Auspep) (SEQ ID NO:1) were added. All cells were cultured at 37° C. in 5% O2, 10% CO2 and 85% N2. Cells were grown for 6 days prior to counting.
Thrombin-cleaved Opn was prepared by incubating 24 μg bovine Opn in 20 mM Tris-HCl (pH 7.6), 80 mM NaCl, 2 mM CaCl2 and 0.1 units of thrombin (CSL, Parkville, Australia), for 10 min at 37° C.

Substance: SVVYGLR-NH2 [osteopontin peptide]
- cell proliferation: significant inhibition of cell proliferation
